For one experiment, the system named is NCI-H358 cells. In words: NCI-H358 3D tumor spheroid growth inhibition. It is filed as cell-based. The following applies: Homo sapiens, NCI-H358, 168 h, 3D spheroids, 7 days, 3D CellTiter Glo; cellular IC50 designated EC50; read-out: H358 EC50. An excerpt:
SHP-2 Cell Based Assay: […] Materials NCI-H358 cell line was purchased from [NT] number ATCC CRL-5807) (Manassas, Va.). RPMI-1640 (Catalog number 10-040-CM) was from Corning Cellgro (Manassas, Va.), Fetal Bovine Serum (FBS) (Catalog number SH30071.03) was from HyClone (Logan, Utanh), and 100× Penicillin/Streptomycin/L-Glutamine stock (Catalog no. 30-009-CI) and 384-well ULA plates (Catalog number 3830) were from Corning (Fremont, Calif.). Method […] At the day of assay, the cells were trypsinized and seeded at 1000 cells/70 μl/well in 384-well ULA plates and incubated at 37° C. incubator with 5% CO2 to allow spheroids to form. […] The plates were incubated for additional 7 days. Then 35 μl of medium from each well was removed, and replaced with 35 μl of 3D CellTiter Glo reagent from Promega. The wells were mixed by pipetting up and down with Biomek FX for 15 times to induce cell lysis and the plates were incubated at room temperature for additional 10 min to stabilize luminescent signal. The luminescence was then read by Envision. The inhibitor dose response curves were generated using normalized cellular IC50 (designated as EC50 in all FIGURES to distinguish from biochemical IC50s) by in house dose response analyses tools. The wells with DMSO vehicle were used as negative controls (0% inhibition). The % inhibition of SHP-2 compounds was calculated as: 100-[(Compound well luminescence counts/DMSO luminescence counts)×100%].
A general note: ATP-based viability assays read luminescence as a measure of living cells.

In experiment [1] the target is SHP-2 full length protein (Homo sapiens (Human), UniProt Q06124). In words: SHP-2 biochemical DiFMUP pseudosubstrate-fluorogenic assay. The following applies: 0.2 nM SHP-2, 1 μM IRS-1 activator peptide, 50 μM DiFMUP; read-out: SHP2 IC50. As to the method:
SHP-2 Biochemical Assay Materials Recombinant SHP-2 full length protein was generated in house. SHP-2 protein tyrosine phosphatase (PTP) domain protein (Catalog number SPR0217-20 ug), NaCl (Catalog number S6546-1L), and KCl (Catalog number 60142-500 mL) were purchased from Sigma-Aldrich (St. Louis, Mo.). IRS-1_[…](dPEG8)[…] peptide […]) was custom made by AnaSpec (Fremont, Calif.). DiFMUP substrate (Catalog number D6567), EDTA (Catalog number E177-500 mL), DTT (Catalog number P2325), and 384-well black polystyrene non-binding surface (Catalog number 3820) were purchased from Fisher Scientific (Hanover Park, Ill.). HEPES (Catalog number 15630-080) was purchased from Life Technologies (Pleasanton, Calif.), and Tween-20 (Catalog number 95059-250) was purchased from VWR (Radnor, Pa.). Method Inhibition of SHP-2 activity by small molecule inhibitors was monitored by a biochemical DiFMUP pseudosubstrate-fluorogenic assay. […] The reaction mix was added to the 384-well non-binding plate which had been pre-spotted with 1:3 serial diluted compounds from 10,000-0.005 nM, and incubated at room temperature for 90 min. DiFMUP substrate at final concentration of 50 μM was then added to the wells and incubated for additional 30 min at room temperature. The final reaction volume was 20 μl/well. […] The inhibitor dose response curves were generated using normalized IC50 regression curve fitting by in house dose response analysis tools. The wells with DMSO vehicle were used as controls (100% signal). The percent (%) control of SHP-2 compound was calculated as: (Compound well fluorescence counts/DMSO fluorescence counts)×100%.

Sequence of SHP-2 full length protein (Q06124 whole entry): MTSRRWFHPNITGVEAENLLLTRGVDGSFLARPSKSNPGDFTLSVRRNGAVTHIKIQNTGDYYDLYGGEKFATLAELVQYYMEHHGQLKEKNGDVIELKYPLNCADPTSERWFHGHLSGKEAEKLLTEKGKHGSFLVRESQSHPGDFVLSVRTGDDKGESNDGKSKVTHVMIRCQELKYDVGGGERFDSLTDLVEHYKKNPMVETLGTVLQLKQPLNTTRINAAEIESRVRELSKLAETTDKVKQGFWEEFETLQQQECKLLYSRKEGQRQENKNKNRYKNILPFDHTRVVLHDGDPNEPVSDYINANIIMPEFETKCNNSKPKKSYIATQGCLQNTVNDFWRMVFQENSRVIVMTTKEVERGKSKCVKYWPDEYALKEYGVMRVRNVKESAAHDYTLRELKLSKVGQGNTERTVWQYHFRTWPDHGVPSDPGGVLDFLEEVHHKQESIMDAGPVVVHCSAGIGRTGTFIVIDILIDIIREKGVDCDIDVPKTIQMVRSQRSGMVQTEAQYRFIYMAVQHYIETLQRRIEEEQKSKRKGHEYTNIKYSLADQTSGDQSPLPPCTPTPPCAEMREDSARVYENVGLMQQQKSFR

A word on the EC50: it is the concentration that produces a half-maximal response. For orientation: IC50 means the midpoint of a concentration-inhibition curve. In the case of `NC1CC2CN(c3ncc(Sc4cccc(Cl)c4Cl)c4nccn34)CC2C1` (centres unmarked) [Example 40, 2-(8-((2,3-dichlorophenyl)thio)imidazo[1,2-c]pyrimidin-5-yl)octahydrocyclopenta[c]pyrrol-5-amine], in the experiment on NCI-H358 cells, the EC50 was 3200 nM. Also, the IC50 in experiment [1] came to 190 nM.
With `NCC1CC2CN(c3ncc(Sc4cccc(Cl)c4Cl)c4nccn34)CC2C1` (centres unmarked) [Example 41, (2-(8-((2,3-dichlorophenyl)thio)imidazo[1,2-c]pyrimidin-5-yl)octahydrocyclopenta[c]pyrrol-5-yl)methanamine], in the experiment with NCI-H358 cells, the EC50 amounted to 3200 nM. Besides, the 50% inhibitory concentration (IC50) in experiment [1] came to 150 nM.
With `NC[C@H]1[C@H]2CN(c3ncc(Sc4cccc(Cl)c4Cl)c4nccn34)C[C@@H]12` [Example 42, ((1R,5S,6r)-3-(8-((2,3-dichlorophenyl)thio)imidazo[1,2-c]pyrimidin-5-yl)-3-azabicyclo[3.1.0]hexan-6-yl)methanamine], in the experiment with NCI-H358 cells, the half-maximal effective concentration (EC50) was 1300 nM. In addition, in experiment [1], the IC50 stood at 80 nM.
In the case of `N[C@@H]1CCCC12CCN(c1ncc(Sc3cccc(Cl)c3Cl)c3nccn13)CC2` [Example 44, (R)-8-(8-((2,3-dichlorophenyl)thio)imidazo[1,2-c]pyrimidin-5-yl)-8-azaspiro[4.5]decan-1-amine], the EC50 in the experiment with NCI-H358 cells was 130 nM. Moreover, the IC50 in experiment [1] amounted to 2.8 nM.
The like results for `Nc1nccc(Sc2cnc(N3CCC4(CCC[C@H]4N)CC3)n3ccnc23)c1Cl` [Example 45, (R)-8-(8-((2-amino-3-chloropyridin-4-yl)thio)imidazo[1,2-c]pyrimidin-5-yl)-8-azaspiro[4.5]decan-1-amine] were, in that order, 170 nM and 5.6 nM.
Turning to `N[C@@H]1CCCC12CCN(c1ncc(Sc3ccnc(Cl)c3Cl)c3nccn13)CC2` [Example 46, (R)-8-(8-((2,3-dichloropyridin-4-yl)thio)imidazo[1,2-c]pyrimidin-5-yl)-8-azaspiro[4.5]decan-1-amine], in the experiment with NCI-H358 cells, the EC50 was 31 nM. Moreover, the IC50 in experiment [1] came out at 3.1 nM.
With `Cc1nccc(Sc2cnc(N3CCC4(CCC[C@H]4N)CC3)n3ccnc23)c1Cl` [Example 47, (R)-8-(8-((3-chloro-2-methylpyridin-4-yl)thio)imidazo[1,2-c]pyrimidin-5-yl)-8-azaspiro[4.5]decan-1-amine], in the experiment on NCI-H358 cells, the EC50 was found to be 150 nM. Moreover, the IC50 in experiment [1] is 7.6 nM.
On the same counts, the results for `CC1(N)CCN(c2ncc(Sc3cccc(Cl)c3Cl)c3nccn23)CC1` [Example 48, 1-(8-((2,3-dichlorophenyl)thio)imidazo[1,2-c]pyrimidin-5-yl)-4-methylpiperidin-4-amine] are 1700 nM and 120 nM.
As to `N[C@@H]1CCCC12CCN(c1ncc(-c3cccc(Cl)c3Cl)c3nccn13)CC2` [Example 52, (R)-8-(8-(2,3-dichlorophenyl)imidazo[1,2-c]pyrimidin-5-yl)-8-azaspiro[4.5]decan-1-amine], the concentration giving a half-maximal response (EC50) in the experiment on NCI-H358 cells was greater than 12500 nM. The IC50 in experiment [1] was 280 nM.
On to `C[C@@H]1OCC2(CCN(c3ncc(Sc4cccc(Cl)c4Cl)c4nccn34)CC2)[C@@H]1N` [Example 55, (3S,4S)-8-(8-((2,3-dichlorophenyl)thio)imidazo[1,2-c]pyrimidin-5-yl)-3-methyl-2-oxa-8-azaspiro[4.5]decan-4-amine], for which the EC50 with NCI-H358 cells is 49 nM. In experiment [1], the IC50 worked out at 1.5 nM.
On the same counts, the results for `NC1CCCN(c2ncc(Sc3cccc(Cl)c3Cl)c3nccn23)CC1` (centres unmarked) [Example 56, 1-(8-((2,3-dichlorophenyl)thio)imidazo[1,2-c]pyrimidin-5-yl)azepan-4-amine] are 990 nM and 75 nM.
The like results for `Clc1cccc(Sc2cnc(N3CCC4(CCCCN4)CC3)n3ccnc23)c1Cl` [Example 57, 9-(8-((2,3-dichlorophenyl)thio)imidazo[1,2-c]pyrimidin-5-yl)-1,9-diazaspiro[5.5]undecane] were, in that order, greater than 12500 nM and 500 nM.
The like results for `NC1CC2(CCN(c3ncc(Sc4cccc(Cl)c4Cl)c4nccn34)C2)C1` (centres unmarked) [Example 58, 6-(8-((2,3-dichlorophenyl)thio)imidazo[1,2-c]pyrimidin-5-yl)-6-azaspiro[3.4]octan-2-amine] were, in that order, 4400 nM and 340 nM.
Turning to `CC1(N)CCN(c2ncc(Sc3cccc(Cl)c3Cl)c3nncn23)CC1` [Example 61, 1-(8-((2,3-dichlorophenyl)thio)-[1,2,4]triazolo[4,3-c]pyrimidin-5-yl)-4-methylpiperidin-4-amine], in the experiment on NCI-H358 cells, the EC50 is 2300 nM. In experiment [1], the IC50 is 130 nM.
On to `CC1(N)CCN(c2ncc(Sc3cccc(Cl)c3Cl)c3ncnn23)CC1` [Example 62, 1-(8-((2,3-dichlorophenyl)thio)-[1,2,4]triazolo[1,5-c]pyrimidin-5-yl)-4-methylpiperidin-4-amine], for which the 50% effective concentration (EC50) in the experiment with NCI-H358 cells is greater than 12500 nM. In addition, in experiment [1], the 50% inhibitory concentration (IC50) worked out at 1300 nM.
As for `Nc1nccc(Sc2cnc(N3CCC4(CCC[C@H]4N)CC3)n3cnnc23)c1Cl` [Example 63, (R)-8-(8-((2-amino-3-chloropyridin-4-yl)thio)-[1,2,4]triazolo[4,3-c]pyrimidin-5-yl)-8-azaspiro[4.5]decan-1-amine], the EC50 with NCI-H358 cells amounted to 580 nM. In experiment [1], the IC50 was determined as 13 nM.
As to `Cc1nc(N2CCC3(CCC[C@H]3N)CC2)n2cnnc2c1-c1cnc(N)c(Cl)c1Cl` [Example 66, (R)-8-(8-(6-amino-4,5-dichloropyridin-3-yl)-7-methyl-[1,2,4]triazolo[4,3-c]pyrimidin-5-yl)-8-azaspiro[4.5]decan-1-amine], the EC50 in the experiment with NCI-H358 cells amounted to 2900 nM. Further, the IC50 in experiment [1] is 140 nM.
The like results for `Cc1nc(N2CCC3(CC2)CO[C@@H](C)[C@H]3N)n2cnnc2c1-c1cccc(Cl)c1Cl` [Example 67, (3S,4S)-8-(8-(2,3-dichlorophenyl)-7-methyl-[1,2,4]triazolo[4,3-c]pyrimidin-5-yl)-3-methyl-2-oxa-8-azaspiro[4.5]decan-4-amine] were, in that order, 100 nM and 6.4 nM.
On the same counts, the results for `Cc1nc(N2CCC3(CC2)C[C@@H](O)C[C@H]3N)n2cnnc2c1-c1cccc(Cl)c1Cl` [Example 68, (2R,4R)-4-amino-8-(8-(2,3-dichlorophenyl)-7-methyl-[1,2,4]triazolo[4,3-c]pyrimidin-5-yl)-8-azaspiro[4.5]decan-2-ol] are 440 nM and 9.4 nM.
The like results for `N[C@@H]1CCCC12CCN(c1nc(Cl)c(-c3cccc(Cl)c3Cl)c3nccn13)CC2` [Example 69, (R)-8-(7-chloro-8-(2,3-dichlorophenyl)imidazo[1,2-c]pyrimidin-5-yl)-8-azaspiro[4.5]decan-1-amine] were, in that order, 86 nM and 3.1 nM.
For the compound `N[C@@H]1CCCC12CCN(c1ncc(Sc3cncc4ccccc34)c3nccn13)CC2` [Example 70, (R)-8-(8-(isoquinolin-4-ylthio)imidazo[1,2-c]pyrimidin-5-yl)-8-azaspiro[4.5]decan-1-amine], the EC50 in the experiment on NCI-H358 cells worked out at 3900 nM. Moreover, the concentration for half-maximal inhibition (IC50) in experiment [1] came out at 670 nM.
For the compound `C[C@@H]1OCC2(CCN(c3ncc(Oc4cccc(Cl)c4Cl)c4nccn34)CC2)[C@@H]1N` [Example 71, (3S,4S)-8-(8-(2,3-dichlorophenoxy)imidazo[1,2-c]pyrimidin-5-yl)-3-methyl-2-oxa-8-azaspiro[4.5]decan-4-amine], in the experiment on NCI-H358 cells, the EC50 stood at 1400 nM. Moreover, the IC50 in experiment [1] is 120 nM.
